Reference: US20120152149A1, “USE OF 1,3-DIOLS AS BIOCIDES” (BASF SE, priority 2009, published 2012)
Like-named read-outs stand apart in the source and are kept apart here.

Legend:
Assay type in all cases: cell-based
A. niger IMI 149007 = test: Microstatic activity, MIC in tryptone soy broth; settings: Aspergillus niger, IMI149007, 120 h, 25° C., 5 days
Procedure: (§1) For this, in each case a 40 percent strength by weight solution of a diol in propylene glycol was prepared at 60° C. This solution was diluted with a double-strength soy solution (double-strength tryptone soy broth) as nutrient medium in the volume ratio 1:1. Further dilution with soy solution produced solutions with the following concentrations: 400 000 ppm (40%), 200 000 ppm (20%), 100 000 ppm (10%), 50 000 ppm (5%), 25 000 ppm (2.5%), 12 500 ppm (1.25%), 6250 ppm (0.625%), 3125 ppm (0.3125%). Pure soy solution was used as negative control. The positive control used was a solution of 5 ml of soy solution which has been treated with 0.1 ml of the respective microorganism. The test solutions consisted of 5 ml of the above-described soy solutions of the diols in the particular concentration which have been mixed with 0.1 ml of the respective microorganism. The samples and controls were incubated in the case of the bacteria at 30° C. for 48 hours, and in the case of fungi over 5 days at 25° C. In each case, the MIC (Minimum Inhibitory Concentration) value was determined. This value indicates the minimum concentration above which the growth of the microorganisms was visibly hindered compared to the corresponding sample without addition of the diol. […] For example, this was evident from the occurrence of clouding or visible growth of the microorganism. […] The MIC value stated is a range between the next higher concentration of a positive test and the same and/or lower concentration of a first negative test.

C. albicans NCPF 3179 = test: Microstatic activity, MIC in tryptone soy broth; settings: 25° C., 5 days; for MIC: Candida albicans, NCPF3179, 120 h
Procedure: as §1

E. coli NCIMB 8545 = test: Microstatic activity, MIC in tryptone soy broth; settings: Escherichia coli, NCIMB8545, 30° C., 48 hours
Procedure: as §1

[1] = test system: P. aeruginosa NCIMB 10421; test: Microstatic activity, MIC in tryptone soy broth; settings: Pseudomonas aeruginosa, NCIMB10421, 30° C., 48 hours
Procedure: as §1

P. vulgaris NCIMB 4175 = test: Microstatic activity, MIC in tryptone soy broth; settings: Proteus vulgaris, NCIMB4175, 30° C., 48 hours
Procedure: as §1

S. aureus NCIMB 9578 = test: Microstatic activity, MIC in tryptone soy broth; settings: Staphylococcus aureus, NCIMB9578, 30° C., 48 hours
Procedure: as §1

[2] = test system: series of tested microorganisms (bacteria and fungi); test: Microstatic activity, highest MIC from the series of tested microorganisms; settings: highest measured MIC from the series of tested microorganisms
Procedure: The following microorganisms were used;to test the biocidal effect against various bacteria and fungi: In each case, the MIC (Minimum Inhibitory Concentration) value was determined. This value indicates the minimum concentration above which the growth of the microorganisms was visibly hindered compared to the corresponding sample without addition of the diol. The MIC value stated is a range between the next higher concentration of a positive test and the same and/or lower concentration of a first negative test. In the last line of each of the tables below, a “maximum” value is listed. This value indicates the highest measured MIC value in each case from the series of tested microorganisms.

A. niger ATCC 16404 [3] = test: Preservation stress test, example formulation 1 (standard emulsion O/W); settings: 1% active substance
Procedure: (§2) Preservation stress tests (PSTs) were carried out in order to determine the preserving activity of the diols. In the preservation stress test, this is simulated through artificial loadings with microorganisms. These can either be inoculated as mixed population or individually in mixtures independent of one another. The inoculated product samples are incubated under defined conditions and, after defined times, samples are taken in order to determine the germ loading. In the case of adequate preservation, the number of microorganisms should, depending on the type, either decrease or remain constant in order to satisfy the requirements specified, e.g. in Ph. Eur. 6.0. To investigate the preserving effect of the diols, application-typical amounts of the diols were incorporated into example formulations. […] [table] These example formulations were used to prepare various mixtures which each comprised 1% active substance or comprised water instead of the active substance as placebo mixtures. These mixtures were in each case inoculated with the test germs such that a germ loading of 10^5-10^6 CFU/g was present in the test mixture. The bacteria were either used individually for the inoculation or as a mixed culture. To determine the starting germ count, immediately after inoculation, an aliquot was taken, diluted in dilution medium (phosphate buffer, 0.07 molar pH 7.4 (+/−0.2), with 1% Tween 80+0.3% soya lecithin), and the surviving germ count was determined in the dilution stages 10^−1 to 10^−3. The inoculated product samples then incubated for a total of 28 d at 20-25° C. After 2 d, 7 d, 14 d and after 28 d, aliquots were taken and diluted in dilution medium (phosphate buffer, 0.07 molar pH 7.4 (+/−0.2), with 1% Tween 80+0.3% soya lecithin). The surviving germ counts were determined in the dilution stages 10^−1 to 10^−4. The reference point taken for determining the reduction in germ count was the respective initial value of the sample. The results were given as logarithmic reductions.

C. albicans ATCC 10231 [4] = test: as above; settings: 1% active substance
Procedure: as §2

A. niger ATCC 16404 [5] = test: Preservation stress test, example formulation 2 (roll-on deodorant formulation); settings: 1% active substance
Procedure: as §2

C. albicans ATCC 10231 [6] = test: as above; settings: 1% active substance
Procedure: as §2

E. coli ATCC 10536 = test: as above; settings: 1% active substance
Procedure: as §2

[7] = lower limit of MIC range, read-out: MIC value (ppm of diol), from
[8] = upper limit of MIC range, read-out: MIC value (ppm of diol), to
[9] = lower limit, read-out: Maximum MIC value (ppm of diol), from

CC(C)C(C)(CO)CO [IMPD, 2-isopropyl-2-methylpropane-1,3-diol]
MIC (A. niger IMI 149007; [7]): > 25 mg/mL | MIC (A. niger IMI 149007; [8]): ≤ 50 mg/mL | MIC (C. albicans NCPF 3179; [7]): > 25 mg/mL | MIC (C. albicans NCPF 3179; [8]): ≤ 50 mg/mL | MIC (E. coli NCIMB 8545; [7]): > 6.25 mg/mL | MIC (E. coli NCIMB 8545; [8]): ≤ 12.5 mg/mL | MIC [1, 7]: > 12.5 mg/mL | MIC [1, 8]: ≤ 25 mg/mL | MIC (P. vulgaris NCIMB 4175; [7]): > 6.25 mg/mL | MIC (P. vulgaris NCIMB 4175; [8]): ≤ 12.5 mg/mL | MIC (S. aureus NCIMB 9578; [7]): > 12.5 mg/mL | MIC (S. aureus NCIMB 9578; [8]): ≤ 25 mg/mL | MIC [2, 9]: > 25 mg/mL | MIC ([2]; upper limit, read-out: Maximum MIC value (ppm of diol), to): ≤ 50 mg/mL | Microbicidal activity given as logarithmic reduction in germ count (A. niger ATCC 16404 [3]; 48 h): 1 log. Red. | Microbicidal activity given as logarithmic reduction in germ count (A. niger ATCC 16404 [3]; 7 d): 1 log. Red. | Microbicidal activity given as logarithmic reduction in germ count (A. niger ATCC 16404 [3]; 14 d): 2 log. Red. | Microbicidal activity given as logarithmic reduction in germ count (A. niger ATCC 16404 [3]; 28 d): 3 log. Red. | Microbicidal activity given as logarithmic reduction in germ count (C. albicans ATCC 10231 [4]; 48 h): 1 log. Red. | Microbicidal activity given as logarithmic reduction in germ count (C. albicans ATCC 10231 [4]; 7 d): ≧3 log. Red. | Microbicidal activity given as logarithmic reduction in germ count (C. albicans ATCC 10231 [4]; 14 d): 5 log. Red. | Microbicidal activity given as logarithmic reduction in germ count (C. albicans ATCC 10231 [4]; 28 d): 5 log. Red. | Microbicidal activity given as logarithmic reduction in germ count (A. niger ATCC 16404 [5]; 48 h): 0 log. Red. | Microbicidal activity given as logarithmic reduction in germ count (A. niger ATCC 16404 [5]; 7 d): 0 log. Red. | Microbicidal activity given as logarithmic reduction in germ count (A. niger ATCC 16404 [5]; 14 d): 0 log. Red. | Microbicidal activity given as logarithmic reduction in germ count (C. albicans ATCC 10231 [6]; 48 h): 0 log. Red. | Microbicidal activity given as logarithmic reduction in germ count (C. albicans ATCC 10231 [6]; 7 d): 0 log. Red. | Microbicidal activity given as logarithmic reduction in germ count (C. albicans ATCC 10231 [6]; 14 d): 0 log. Red. | Microbicidal activity given as logarithmic reduction in germ count (E. coli ATCC 10536; 48 h): 3 log. Red. | Microbicidal activity given as logarithmic reduction in germ count (E. coli ATCC 10536; 7 d): 5 log. Red. | Microbicidal activity given as logarithmic reduction in germ count (E. coli ATCC 10536; 14 d): 5 log. Red. | Microbicidal activity given as logarithmic reduction in germ count (E. coli ATCC 10536; 28 d): 5 log. Red.

CCCCCCCCC(C)(CO)CO [OMPD, 2-octyl-2-methylpropane-1,3-diol]
MIC (A. niger IMI 149007; [7]): > 3.12 mg/mL | MIC (A. niger IMI 149007; [8]): ≤ 6.25 mg/mL | MIC value (ppm of diol), from (C. albicans NCPF 3179; lower limit of MIC range): >0 ppm | MIC (C. albicans NCPF 3179; [8]): ≤ 3.12 mg/mL | MIC (E. coli NCIMB 8545; [7]): > 50 mg/mL | MIC (E. coli NCIMB 8545; [8]): ≤ 100 mg/mL | MIC [1, 7]: > 100 mg/mL | MIC (P. vulgaris NCIMB 4175; [7]): > 50 mg/mL | MIC (P. vulgaris NCIMB 4175; [8]): ≤ 100 mg/mL | MIC (S. aureus NCIMB 9578; [7]): > 25 mg/mL | MIC (S. aureus NCIMB 9578; [8]): ≤ 50 mg/mL | MIC [2, 9]: > 100 mg/mL | Microbicidal activity given as logarithmic reduction in germ count (A. niger ATCC 16404 [3]; 48 h): 0 log. Red. | Microbicidal activity given as logarithmic reduction in germ count (A. niger ATCC 16404 [3]; 7 d): 0 log. Red. | Microbicidal activity given as logarithmic reduction in germ count (A. niger ATCC 16404 [3]; 14 d): 1 log. Red. | Microbicidal activity given as logarithmic reduction in germ count (A. niger ATCC 16404 [3]; 28 d): 1 log. Red. | Microbicidal activity given as logarithmic reduction in germ count (C. albicans ATCC 10231 [4]; 48 h): ≧3 log. Red. | Microbicidal activity given as logarithmic reduction in germ count (C. albicans ATCC 10231 [4]; 7 d): 5 log. Red. | Microbicidal activity given as logarithmic reduction in germ count (C. albicans ATCC 10231 [4]; 14 d): 5 log. Red. | Microbicidal activity given as logarithmic reduction in germ count (C. albicans ATCC 10231 [4]; 28 d): 5 log. Red. | Microbicidal activity given as logarithmic reduction in germ count (A. niger ATCC 16404 [5]; 48 h): 0 log. Red. | Microbicidal activity given as logarithmic reduction in germ count (A. niger ATCC 16404 [5]; 7 d): 0 log. Red. | Microbicidal activity given as logarithmic reduction in germ count (A. niger ATCC 16404 [5]; 14 d): 0 log. Red. | Microbicidal activity given as logarithmic reduction in germ count (C. albicans ATCC 10231 [6]; 48 h): 0 log. Red. | Microbicidal activity given as logarithmic reduction in germ count (C. albicans ATCC 10231 [6]; 7 d): 0 log. Red. | Microbicidal activity given as logarithmic reduction in germ count (C. albicans ATCC 10231 [6]; 14 d): 0 log. Red. | Microbicidal activity given as logarithmic reduction in germ count (E. coli ATCC 10536; 48 h): 0 log. Red. | Microbicidal activity given as logarithmic reduction in germ count (E. coli ATCC 10536; 7 d): ≧3 log. Red. | Microbicidal activity given as logarithmic reduction in germ count (E. coli ATCC 10536; 14 d): 5 log. Red. | Microbicidal activity given as logarithmic reduction in germ count (E. coli ATCC 10536; 28 d): 5 log. Red.
